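Results reflect a 48-hour exposure of cells in 96-well plates to compound at five concentrations. Definition used: TGI = concentration required for complete inhibition of growth.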 Where a SMILES comes first, the peptide text is derived from it. [ ]: non-standard residue; d: D form. The star is where a group is joined. ξ: configuration not given here. NMeF = CN[C@@H](Cc1ccccc1)C(=O)O; ξNMeV = CNC(C(=O)O)C(C)C; Boc = CC(C)(C)OC(=O)*; OBn = c1ccc(CO*)cc1

The results in this text go back to PubChem BioAssay (NCI).

Test systems include HCT-116 colon; HCT-15 colon; HOP-92 NSCLC; SF-539 CNS; CCRF-CEM leukemia; LOX IMVI melanoma; NCI-H460 lung; U251 CNS; SR leukemia; HOP-62 NSCLC; EKVX NSCLC; UACC-257 melanoma; IGROV1 ovarian; NCI-H23 lung; OVCAR-4 ovarian; NCI-H522 lung; HCC-2998 colon; SF-295 CNS; M14 melanoma.
Common to all, as to test: DTP human tumour cell line panel, 48 h

For the compound `CCN(CC)Cc1nc(C2CCC([N+](=O)[O-])O2)no1` (stereo not given), the TGI with HCT-116 colon was 60.4 µM; in the assay on HCT-15 colon, 38.1 µM; in the assay with HOP-92 NSCLC, over 100 µM; with SF-539 CNS, 49 µM; in the assay on CCRF-CEM leukemia, over 100 µM; in the assay on LOX IMVI melanoma, over 100 µM. The TGI is 44.5 µM in the assay with NCI-H460 lung; 62.3 µM with U251 CNS; over 100 µM in the assay with SR leukemia; 82.7 µM in the assay with HOP-62 NSCLC; over 100 µM in the assay on EKVX NSCLC; 40.8 µM in the assay on UACC-257 melanoma. Besides, the TGI was over 100 µM with IGROV1 ovarian; 41.7 µM with NCI-H23 lung; over 100 µM in the assay with OVCAR-4 ovarian; 31 µM with NCI-H522 lung; 42.4 µM with HCC-2998 colon; over 100 µM in the assay on SF-295 CNS. This compound also came in with a TGI in the assay with M14 melanoma of 28.3 µM.

For the compound `CC(C)C(C(=O)N1CCC[C@@H]1C(=O)OCc1ccccc1)N(C)C(=O)C(C(C)C)N(C)C(=O)[C@H](Cc1ccccc1)N(C)C(=O)[C@H](NC(=O)OC(C)(C)C)C(C)C` (stereo not given in full) (Boc-[dV][NMeF][ξNMeV][ξNMeV][dP]-OBn), the TGI with HCT-116 colon, in the assay with HCT-15 colon, with HOP-92 NSCLC, in the assay with SF-539 CNS, in the assay with CCRF-CEM leukemia and with LOX IMVI melanoma was over 100 µM each time. Besides, the TGI in the assay with NCI-H460 lung, in the assay with U251 CNS, in the assay on SR leukemia, in the assay with HOP-62 NSCLC, with EKVX NSCLC and in the assay on UACC-257 melanoma was over 100 µM throughout. Moreover, the TGI with IGROV1 ovarian, in the assay on NCI-H23 lung, in the assay on OVCAR-4 ovarian, with NCI-H522 lung, in the assay with HCC-2998 colon and in the assay on SF-295 CNS was over 100 µM in each case. For the same compound, in the assay on M14 melanoma, the TGI is over 100 µM.

Take `CC12CC[C@H](O)C(C)(C)[C@H]1CC[C@](C)(O)C2COc1ccc2ccc(=O)oc2c1` (stereo not given in full): the TGI in the assay with HCT-116 colon, in the assay with HCT-15 colon, in the assay with HOP-92 NSCLC, in the assay with SF-539 CNS, in the assay with CCRF-CEM leukemia and with LOX IMVI melanoma was over 100 µM in each case. Moreover, the concentration for total growth inhibition (TGI) with NCI-H460 lung, with U251 CNS, with SR leukemia, in the assay on HOP-62 NSCLC, in the assay with EKVX NSCLC and with UACC-257 melanoma was over 100 µM in each case. Moreover, the TGI with IGROV1 ovarian, with NCI-H23 lung, with OVCAR-4 ovarian, in the assay on NCI-H522 lung, with HCC-2998 colon and in the assay with SF-295 CNS was over 100 µM throughout. Moreover, the total growth inhibition concentration (TGI) in the assay with M14 melanoma was over 100 µM.

As to `c1ccc2sc(C3(N4CCCCC4)CCCCCC3)cc2c1`, the TGI in the assay with HCT-116 colon worked out at 32.8 µM; with HCT-15 colon, 34.8 µM; in the assay on HOP-92 NSCLC it was 51.8 µM; in the assay with SF-539 CNS, 38.2 µM; in the assay on CCRF-CEM leukemia, 26.1 µM; in the assay with LOX IMVI melanoma it was 34.6 µM. Also, the TGI in the assay on NCI-H460 lung came out at 38.6 µM; with U251 CNS, 31 µM; in the assay on SR leukemia it was 36.7 µM; in the assay with HOP-62 NSCLC, 60.9 µM; in the assay with EKVX NSCLC it was 47.2 µM; in the assay with UACC-257 melanoma it was 34.9 µM. Also, the TGI with IGROV1 ovarian was 52.7 µM; in the assay on NCI-H23 lung, 43.3 µM; with OVCAR-4 ovarian, 76 µM; in the assay with NCI-H522 lung it was 32.8 µM; in the assay on HCC-2998 colon, 27.9 µM; in the assay on SF-295 CNS, 49.1 µM. In addition, in the assay on M14 melanoma, the TGI was found to be 67.2 µM.

Take `Cc1nc2ccccc2c(=O)n1NC(=O)c1ccccc1O`: the TGI with HCT-116 colon, with HCT-15 colon, in the assay with HOP-92 NSCLC, with SF-539 CNS, with CCRF-CEM leukemia and with LOX IMVI melanoma was over 100 µM throughout. For the same compound, the TGI in the assay with NCI-H460 lung, with U251 CNS, with SR leukemia, in the assay with HOP-62 NSCLC, with EKVX NSCLC and with UACC-257 melanoma was over 100 µM throughout. In addition, the concentration for total growth inhibition (TGI) in the assay with IGROV1 ovarian, with NCI-H23 lung, with OVCAR-4 ovarian, in the assay with NCI-H522 lung, in the assay with HCC-2998 colon and in the assay with SF-295 CNS was over 100 µM in each case. Moreover, the TGI in the assay with M14 melanoma is over 100 µM.
